Reference: patent publication US20260125359A1, “HETEROARYL COMPOUNDS AS MULTI-TARGET PROTEIN KINASE INHIBITORS” (FUJIAN HAIXI PHARMACEUTICALS CO., LTD., priority 2023, published 2026)

How the values were obtained:
CSF-1R = CSF-1R (Homo sapiens, UniProt P07333); experiment: CSF-1R in vitro kinase activity assay (HTRF kinEASE TK); assay type: biochemical; conditions: for inhibition at 0.01 µM: compound 10 nM, read-out: CSF-1R inhibition rate, 10 nM; for inhibition at 0.1 µM: compound 100 nM, read-out: CSF-1R inhibition rate, 100 nM
Excerpt: (§1) CSF-1R, PDGFR-α, KDR (VEGFR2) and KIT in vitro Kinase Activity Assay:
(§2) • ENVISION (Perkinelmer, 2104) • White 384-well MicroPlate (Cat #264706, Nunc) • HTRF kinEASE TK kit main reagents (Cat #62TKOPEC, Cisbio) • TK-biotin substrate • Streptavidin-XL665 • TK Antibody-Cryptate • 5× Enzymatic buffer (5×KB) • Staphylococcal enterotoxin B (SEB) • HTRF Detection buffer • CSF-1R (Cat #PV3249, Invitrogen) • PDGFR-α (Cat #PV3811, Invitrogen) • KDR (Cat #PV3660, Invitrogen) • KIT (Cat #08-156, Carna) • ATP 10 mM (Cat #PV3227, Invitrogen) • DTT 1 M (Cat #D5545, Sigma) • MgCl2 1 M (Cat #M8266, Sigma) • MnCl2 1 M (Cat #244589, Sigma)
(§3) Dilute Substrate-TK and ATP to 5× of the reaction concentration using 1× Kinase Buffer.
(§4) Prepare the 5× enzyme working solution using 1× Kinase Buffer.
(§5) Prepare the 4×Sa-XL665 working solution using Detection Buffer.
(§6) Dilute TK-Ab-Cryptate 100 times using Detection Buffer to prepare the working solution.
(§7) After all reagents were prepared according to the methods described above, except for the enzyme, they were equilibrated to room temperature before starting the sample addition. • a) First, 2.5% DMSO solutions were prepared separately using the pre-prepared 1× kinase buffer (DMSO concentrations that were too high could affect the reaction, so the final concentration of DMSO was controlled at 1%). Then, the corresponding 2.5% DMSO solution for the enzyme was used to dilute the test compounds. Compounds were screened with two concentrations of 100 nM and 10 nM. Except for the control wells, 4 μL of the diluted test compound solution was added to the reaction wells, and 4 μL of the pre-prepared 2.5% DMSO solution was added to the control wells. • b) 2 μL of the pre-prepared TK-biotin substrate solution at the corresponding concentration for the kinase was added to all reaction wells. • c) 2 μL of the pre-prepared enzyme solution at the corresponding concentration was added to all reaction wells except the negative control wells. For the negative control wells, 2 μL of 1× kinase buffer corresponding to the enzyme was added to make up the volume. The plate was sealed with sealing film, mixed gently, and incubated at room temperature for 10 min to allow the compounds to fully interact with the enzyme. • d) 2 μL of the ATP solution at the corresponding concentration for the enzyme was added to all reaction wells to initiate the kinase reaction. ATP concentrations and reaction times for enzyme screening are shown in Table 26 • e) Five minutes before the end of the kinase reaction, the detection solution was prepared. The detection buffer from the kit was used to prepare detection solutions for Streptavidin-XL665 and TK antibody europium cryptate (1:100) at the appropriate concentrations for the two enzymes. • f) After the kinase reaction was completed, 5 μL of the diluted Streptavidin-XL665 solution was added to all reaction wells. After mixing, the diluted TK antibody europium cryptate detection solution was immediately added. • g) The plate was sealed and mixed, incubated at room temperature for 1 hour, and the fluorescence signal was detected using the ENVISION (PerkinElmer) instrument (excitation at 320 nm, emission at 665 nm and 615 nm). The inhibition rate for each well was calculated based on the full-activity control wells and background signal wells, and the average value of the replicates was taken.

KIT = KIT (Homo sapiens, UniProt P10721); experiment: KIT in vitro kinase activity assay (HTRF kinEASE TK); assay type: biochemical; conditions: for inhibition at 0.01 µM: compound 10 nM, read-out: KIT inhibition rate, 10 nM; for inhibition at 0.1 µM: compound 100 nM, read-out: KIT inhibition rate, 100 nM
Excerpt: as §1, §2, §3, §4, §5, §6, §7

Chain of KIT (P10721 26-976): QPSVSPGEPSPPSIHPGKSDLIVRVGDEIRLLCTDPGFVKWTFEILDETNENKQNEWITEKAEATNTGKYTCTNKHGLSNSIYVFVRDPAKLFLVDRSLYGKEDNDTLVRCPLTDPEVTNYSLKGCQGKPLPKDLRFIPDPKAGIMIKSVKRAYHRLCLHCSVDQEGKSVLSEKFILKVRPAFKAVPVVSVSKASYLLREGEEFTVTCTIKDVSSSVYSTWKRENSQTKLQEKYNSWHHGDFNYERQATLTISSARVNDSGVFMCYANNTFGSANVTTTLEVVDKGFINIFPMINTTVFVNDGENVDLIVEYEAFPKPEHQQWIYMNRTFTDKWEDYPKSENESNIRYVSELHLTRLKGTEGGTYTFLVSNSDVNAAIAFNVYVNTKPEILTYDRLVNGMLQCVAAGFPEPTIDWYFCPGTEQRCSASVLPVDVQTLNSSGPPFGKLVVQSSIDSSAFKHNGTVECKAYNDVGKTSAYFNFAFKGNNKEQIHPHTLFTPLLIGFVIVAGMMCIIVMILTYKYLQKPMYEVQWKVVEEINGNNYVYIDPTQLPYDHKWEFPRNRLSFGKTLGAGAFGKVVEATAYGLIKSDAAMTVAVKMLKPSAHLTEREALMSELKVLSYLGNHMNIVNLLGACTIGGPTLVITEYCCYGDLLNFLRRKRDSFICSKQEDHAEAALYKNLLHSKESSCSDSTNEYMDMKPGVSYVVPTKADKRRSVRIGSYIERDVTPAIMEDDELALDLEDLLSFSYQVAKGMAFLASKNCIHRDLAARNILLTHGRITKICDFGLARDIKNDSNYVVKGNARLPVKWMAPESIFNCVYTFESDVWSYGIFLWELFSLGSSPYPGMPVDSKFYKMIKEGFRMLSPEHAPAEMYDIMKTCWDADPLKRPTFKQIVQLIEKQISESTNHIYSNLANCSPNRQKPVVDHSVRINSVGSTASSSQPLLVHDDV
Chain of CSF-1R (P07333 20-972): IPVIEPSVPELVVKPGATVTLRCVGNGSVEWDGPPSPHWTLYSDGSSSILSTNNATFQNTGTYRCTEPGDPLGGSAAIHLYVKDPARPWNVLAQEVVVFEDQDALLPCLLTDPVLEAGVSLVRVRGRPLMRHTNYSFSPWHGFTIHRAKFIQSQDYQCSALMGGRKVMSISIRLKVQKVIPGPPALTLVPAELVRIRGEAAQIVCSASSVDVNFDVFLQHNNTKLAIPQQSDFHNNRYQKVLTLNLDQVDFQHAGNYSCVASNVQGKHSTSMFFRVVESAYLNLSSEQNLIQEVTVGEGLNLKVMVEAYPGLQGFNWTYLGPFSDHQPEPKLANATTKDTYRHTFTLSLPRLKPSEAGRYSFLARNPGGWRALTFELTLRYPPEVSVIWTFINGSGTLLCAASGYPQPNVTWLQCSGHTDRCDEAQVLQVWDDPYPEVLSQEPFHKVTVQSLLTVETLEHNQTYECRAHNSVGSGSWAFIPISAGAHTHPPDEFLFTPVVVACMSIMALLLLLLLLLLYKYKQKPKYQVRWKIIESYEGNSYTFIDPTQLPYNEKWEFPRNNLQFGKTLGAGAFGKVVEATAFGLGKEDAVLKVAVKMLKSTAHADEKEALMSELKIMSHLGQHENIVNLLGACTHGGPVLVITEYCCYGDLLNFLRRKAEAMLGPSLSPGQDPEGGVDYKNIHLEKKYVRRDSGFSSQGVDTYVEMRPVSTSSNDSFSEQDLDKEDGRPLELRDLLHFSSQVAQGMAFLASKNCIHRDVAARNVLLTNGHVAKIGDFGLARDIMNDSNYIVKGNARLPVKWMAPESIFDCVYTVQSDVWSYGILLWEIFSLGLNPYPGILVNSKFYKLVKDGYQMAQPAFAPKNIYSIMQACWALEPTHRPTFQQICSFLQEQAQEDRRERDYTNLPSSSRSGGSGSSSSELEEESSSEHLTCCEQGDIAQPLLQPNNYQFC

inhibition at 0.01 µM (CSF-1R)	inhibition at 0.1 µM (CSF-1R)	inhibition at 0.01 µM (KIT)	inhibition at 0.1 µM (KIT)	SMILES
78.2%	99.1%	39.6%	79.1%	Cn1cc2ncc(O[C@H]3CCc4c(C(=O)Nc5cncc(Cl)c5)cccc43)cc2n1 [Compound 76ai]
34%	96.7%	5.8%	27.2%	CN(c1cncc(-c2cnn(C)c2)c1)[C@H]1CCc2c(C(=O)Nc3cccc(C4CC4)c3)cccc21 [Compound 22a, (S)—N-(3-cyclopropylphenyl)-1-(methyl (5-(1-methyl-1H-pyrazol-4-yl)pyridin-3-yl)amino)-2,3-dihydro-1H-indene-4-carboxamide]

More lines, now with the values behind:

SMILES	inhibition at 0.01 µM (CSF-1R)	inhibition at 0.1 µM (CSF-1R)	inhibition at 0.01 µM (KIT)	inhibition at 0.1 µM (KIT)
Cn1cc(-c2cncc(N[C@H]3CCc4c(C(=O)Nc5ccc(C(F)(F)F)nc5)cccc43)c2)cn1 [Compound 14ah]	41%	101%	11.3%	83.3%
CN1CCc2ccc(NC(=O)c3cccc4c3CC[C@@H]4Nc3cncc(-c4cnn(C)c4)c3)cc2C1 [Compound 14ap]	63.5%	96.7%	30.5%	80.7%
Cn1cc(-c2cncc(O[C@H]3CCc4c(C(=O)Nc5cncc(Cl)c5)cccc43)c2)cn1 [Compound 19a, (S)—N-(5-chloropyridin-3-yl)-1-((5-(1-methyl-1H-pyrazol-4-yl)pyridin-3-yl)oxy)-2,3-dihydro-1H-indene-4-carboxamide]	79.4%	100%	22.1%	48.6%
